The values that follow come from ChEMBL document CHEMBL1122213, “Synthesis and study of a spin-labeled cyclophosphamide analogue, 3-(1-oxy-2,2,6,6-tetramethyl-4-piperidinyl)cyclophosphamide” (J Med Chem, 1982).

Data set [1] can be described thus: Anticancer activity tested against L1210 lymphoid leukemia in BDF1 mice; range 25-100. The class given is ADME. The conditions noted are these: mouse.
The nature of data set [2]: Half life was determined. The class given is ADME. The conditions noted are these: rat.
Data set [3] relates to Mus musculus. In words: Compound test for increase life span in mice after 100 mg/kg ip administration. The class given is functional. The following applies: route intraperitoneal.
Data set [4] is described as follows: Anticancer activity tested against L1210 lymphoid leukemia in BDF1 mice; range 75-300. The following applies: mouse. Format: ADME.
Data set [5] is filed under the species Mus musculus. In words: Effect tested against L1210 lymphoid leukemia in BDF1 mice an inoculum of l0E5 cells; Inactive. The class given is functional, organism-based.

Structures are written as SMILES. The source made the active and inactive calls.

Take `CC1(C)CC(NP(=O)(O)N(CCCl)CCCl)CC(C)(C)N1O.CC1(C)CC(NP(=O)(O)N(CCCl)CCCl)CC(C)(C)N1[O]` [listing 1 of 2 here]: in data set [1], the Sublethal dose was > 100 mg/kg.

Take `CC1(C)CC(NP(=O)(O)N(CCCl)CCCl)CC(C)(C)N1O`: the half-life (as a rule, the time needed for the level to fall by half in the phase considered) in data set [2] amounted to 34 min.

In the case of `CC1(C)CC(N2CCCOP2(=O)N(CCCl)CCCl)CC(C)(C)N1[O]` (configuration not stated), the Increased in the data set with Mus musculus [3] amounted to 64%. Besides, the Sublethal dose in data set [4] is > 300 mg/kg. Moreover, in the data set filed under Mus musculus [5], the outcome was inactive.

As to `CC1(C)CC(NP(=O)(O)N(CCCl)CCCl)CC(C)(C)N1[O]`, in data set [2], the half-life was 51 min.

For the compound `CC1(C)CC(NP(=O)(O)N(CCCl)CCCl)CC(C)(C)N1O.CC1(C)CC(NP(=O)(O)N(CCCl)CCCl)CC(C)(C)N1[O]` [listing 2 of 2 here], the result in the data set listed under Mus musculus [5] was inactive.
